From patent US20250090552A1, “MESALAMINE PHARMACEUTICAL FORMULATIONS AND METHODS OF USE THEREOF” (Intact Therapeutics, Inc., priority 2022, published 2025)
Blank lines part the entries; values can stand above or below the molecule they belong to.

Key:
Assay type in all cases: physicochemical
[1] = Stability of one-part formulations stored at 60° C.; details: after preparation of one-part formulations; oxidation in an aqueous solution
[2] = Excipient compatibility study (gelation temperature, constant 15% poloxamer 407); details: change from initial
Protocol: Excipients were studied for compatibility. Constant—15% poloxamer 407 was used. The compatibility study was carried out with the following excipients: Mesalamine—6.67%; Transcutol—10%; EDTA—0.1%; Polocarbophil—0.25%+Tris—0.15%; TPGS—0.2%; NaCl—0.5%; Sodium metabisulfite—0.2%; PVA 30 CPS—1%; Kollidon 30-1%. The following lipids were investigated: DSPC—0.5%+DPCC—0.5%; Phospholipon 90G—1%; Lipoid S 100-1%; Phospholipon 90H—1%; Lecithin—1%. The following combination of poloxamer grades was also studied Poloxamer 188-1.5, 2.5 and 5%. No or marginal impact (1-2° C. from initial) was found for the following excipients: Transcutol, EDTA, TPGS, NaCl, and PVA. Moderate impact (2-5° C. from initial) was found with Mesalamine. […] No or marginal impact (1-2° C. from initial) was found in combinations with DSPC+DPCC, Phospholipon 90 G, and Lipoid S 100. […] All poloxamer combinations were stable for 28 days.

[3] = Gelation temperature (Tg/Tgel) of diluent and reconstituted formulation, initial and on stability storage
Protocol: The target for the 2 compartment formulations: • Gelation temperature 30-37 C • Gelation time—less than 5 minutes • Reconstitution time—less than 1 minutes • Viscosity at RT—less than 3000 cps • Reconstituted formulation should be stable for at least 3 hours
To understand the reproducibility of the gelation temperature, multiple batches were prepared and stability was monitored. In addition to this in one of batch, source of Mesalamine is varied to understand its impact on the various physical parameters.
During the stability study, only gelation temperature and the pH of the reconstituted formulation was monitored.
Formulation with 2% Lipoid S 100 has been considered as the lead formula. Reproducible batches with batch size (3-4 Kg) were manufactured and stability was monitored. These batches were packed into different packaging material MoC to understand its impact on the physical properties.

time to turn brown [1]: ≤ 3 days
SMILES: Nc1ccc(O)c(C(=O)O)c1 [Mesalamine, 5-aminosalicylic acid]

impact on gelation temperature [2]: Significant impact
SMILES: O=S([O-])S(=O)(=O)[O-].[Na+].[Na+] [sodium metabisulfite]

effect of additive on gelation temperature [3]: lowers the gelation temperature
SMILES: Cc1cc(C(C)(C)C)c(O)c(C(C)(C)C)c1 [BHT]
